These results are taken from paper doi:10.1101/2023.05.15.540887, “Comparative analysis of drug-like EP300/CREBBP acetyltransferase inhibitors” (bioRxiv, 2023).

Experiment [1] concerns MCF10A PANK4 KO+PANK4 mutant (D623A) cells. The experiment is described as follows: Sulforhodamine B cell growth assay, MCF10A PANK4 KO+PANK4 mutant. The class given is cell-based. The settings on record: Homo sapiens; MCF-10A KO+PANK4 mutant, 72 h.
In a further experiment the test system is MDA-MB-231/ATCC. The experiment is described as follows: NCI-60 growth inhibition (sulforhodamine B). The class given is cell-based. The settings on record: Homo sapiens, Breast Cancer, negative log of Molar value, LCONC -8, EXPID 2301NS84, read-out: IC50 NLOGVALUE
For a further experiment, the system named is HL-60(TB). The experiment is described as follows: NCI-60 growth inhibition (sulforhodamine B). Format: cell-based, human. The settings on record: HL-60(TB) (Leukemia), negative log of Molar conc., LCONC -8.
A further experiment deals with MCF10A PANK4 KO+EV cells. The experiment is described as follows: Sulforhodamine B cell growth assay, MCF10A PANK4 KO+EV. Format: cell-based, human.
Another experiment deals with A549/ATCC. Also on record: method as in ref 29 (a number printed in a supplementary file, which may have a reference list of its own: not looked up in the article's list). The note with it: Non-SmallCellLung A549/ATCC; highest log conc -4.0; NCI-60 screen data; cited from earlier work.
A further experiment deals with NCI-H322M. Also on record: method as in ref 29 (a number printed in a supplementary file, which may have a reference list of its own: not looked up in the article's list). The note with it: Non-SmallCellLung NCI-H322M; highest log conc -4.0; NCI-60 screen data; cited from earlier work.
The next experiment has as its system RXF393. Also on record: method as in ref 29 (a number printed in a supplementary file, which may have a reference list of its own: not looked up in the article's list). The settings on record: Renal RXF393; highest log conc -4.0; NCI-60 screen data; cited from earlier work.
The next experiment concerns HOP-92. Also on record: method as in ref 29 (a number printed in a supplementary file, which may have a reference list of its own: not looked up in the article's list). The note with it: Non-SmallCellLung HOP-92; highest log conc -4.0; NCI-60 screen data; cited from earlier work.
The test system of a further experiment is UO-31. Also on record: method as in ref 29 (a number printed in a supplementary file, which may have a reference list of its own: not looked up in the article's list). The settings on record: Renal UO-31; highest log conc -4.0; NCI-60 screen data; cited from earlier work.
The next experiment deals with 786-0. Also on record: method as in ref 29 (a number printed in a supplementary file, which may have a reference list of its own: not looked up in the article's list). The note with it: Renal 786-0; highest log conc -4.0; NCI-60 screen data; cited from earlier work.
The next experiment concerns NCI/ADR-RES. Also on record: method as in ref 29 (a number printed in a supplementary file, which may have a reference list of its own: not looked up in the article's list). The note with it: Ovarian NCI/ADR-RES; highest log conc -4.0; NCI-60 screen data; cited from earlier work.
Another experiment concerns IGROV1. Also on record: method as in ref 29 (a number printed in a supplementary file, which may have a reference list of its own: not looked up in the article's list). The settings on record: Ovarian IGROV1; highest log conc -4.0; NCI-60 screen data; cited from earlier work.
A further experiment relates to SK-MEL-2. Also on record: method as in ref 29 (a number printed in a supplementary file, which may have a reference list of its own: not looked up in the article's list). The settings on record: Melanoma SK-MEL-2; highest log conc -4.0; NCI-60 screen data; cited from earlier work.
The test system of a further experiment is OVCAR-4. Also on record: method as in ref 29 (a number printed in a supplementary file, which may have a reference list of its own: not looked up in the article's list). The settings on record: Ovarian OVCAR-4; highest log conc -4.0; NCI-60 screen data; cited from earlier work.
Another experiment deals with UACC-257. Also on record: method as in ref 29 (a number printed in a supplementary file, which may have a reference list of its own: not looked up in the article's list). The note with it: Melanoma UACC-257; highest log conc -4.0; NCI-60 screen data; cited from earlier work.
The next experiment deals with SNB-19. Also on record: method as in ref 29 (a number printed in a supplementary file, which may have a reference list of its own: not looked up in the article's list). The note with it: CNS SNB-19; highest log conc -4.0; NCI-60 screen data; cited from earlier work.
Another experiment relates to MCF7. Also on record: method as in ref 29 (a number printed in a supplementary file, which may have a reference list of its own: not looked up in the article's list). The settings on record: Breast MCF7; highest log conc -4.0; NCI-60 screen data; cited from earlier work.
The next experiment has as its system SN12C. Also on record: method as in ref 29 (a number printed in a supplementary file, which may have a reference list of its own: not looked up in the article's list). The settings on record: Renal SN12C; highest log conc -4.0; NCI-60 screen data; cited from earlier work.
In another experiment the test system is NCI-H226. Also on record: method as in ref 29 (a number printed in a supplementary file, which may have a reference list of its own: not looked up in the article's list). The settings on record: Non-SmallCellLung NCI-H226; highest log conc -4.0; NCI-60 screen data; cited from earlier work.
The next experiment deals with HOP-62. Also on record: method as in ref 29 (a number printed in a supplementary file, which may have a reference list of its own: not looked up in the article's list). The settings on record: Non-SmallCellLung HOP-62; highest log conc -4.0; NCI-60 screen data; cited from earlier work.
For the next experiment, the system named is SR. Also on record: method as in ref 29 (a number printed in a supplementary file, which may have a reference list of its own: not looked up in the article's list). The settings on record: Leukemia SR; highest log conc -4.0; NCI-60 screen data; cited from earlier work.
The next experiment has as its system NCI-H23. Also on record: method as in ref 29 (a number printed in a supplementary file, which may have a reference list of its own: not looked up in the article's list). The settings on record: Non-SmallCellLung NCI-H23; highest log conc -4.0; NCI-60 screen data; cited from earlier work.

pIC50: −log10 of the molar value.

As to `C[C@H](CN[C@@H](C(=O)Nc1ccc(-c2cnn(C)c2)cn1)c1ccccc1)c1ccc(C#N)cc1` [CPI-1612], the pIC50 in experiment [1] is 6.99; in the experiment with MDA-MB-231/ATCC it was below 4.00; in the experiment with MCF10A PANK4 KO+EV cells (Homo sapiens, MCF-10A KO+EV, 72 h), 7.08. Besides, the “TGI NLOGVALUE” in the experiment with HL-60(TB) is listed as 4.6. Also, the GI50 in the experiment on HL-60(TB) (Homo sapiens, read-out: GI50 NLOGVALUE (converted)) was 13.2 nM. For the same compound, in the experiment on HL-60(TB) (Homo sapiens, read-out: IC50 NLOGVALUE (converted)), the IC50 is 15500 nM. Further, the CC50 in the experiment with HL-60(TB) (Homo sapiens, read-out: LC50 NLOGVALUE) was above 100000 nM. The “growth inhibition activity at 1 μM” value with MCF10A PANK4 KO+EV cells (PANK4 KO+EV cells, 1 μM) is given as “remains active”.
Turning to `COC(=O)N1c2ccc3c(nc(Cc4ccccc4)n3[C@H]3CCC[C@H](C(=O)O)C3)c2CC[C@@H]1C` [FT-6876], the “GI50 AVGDATA” value is recorded as -4.56 in the experiment with A549/ATCC; -4.82 in the experiment with NCI-H322M; -4.91 in the experiment with RXF393; -5.79 with HOP-92; -5.54 in the experiment with UO-31; -5.25 in the experiment with 786-0. Further, the “GI50 AVGDATA” value with NCI/ADR-RES was -4.19; in the experiment with IGROV1, -4.68; with SK-MEL-2, -4.46; in the experiment on OVCAR-4 it was -5.17; with UACC-257, -4.83; in the experiment with SNB-19, -4.9. In addition, the “GI50 AVGDATA” value with MCF7 was -6.94; in the experiment on SN12C, -4.76; with NCI-H226, -4.85; in the experiment on HOP-62, -4.95; in the experiment with SR, -4.86.
As to `Cc1sc2c(c1C)C(c1ccc(Cl)cc1)=N[C@@H](CC(=O)OC(C)(C)C)c1nnc(C)n1-2` [JQ-1], the “GI50 AVGDATA” value in the experiment with A549/ATCC is -6.5; in the experiment on NCI-H322M, -6.53; in the experiment on RXF393 it was -6.13; in the experiment on NCI-H23 it was -6.55; with HOP-92, -7.74; in the experiment on UO-31, -7.52. Also, the “GI50 AVGDATA” value in the experiment with 786-0 is reported as -6.08; in the experiment with NCI/ADR-RES it was -6.4; with IGROV1, -6.19; with SK-MEL-2 it was -5.27; in the experiment with OVCAR-4, -6.82; in the experiment on UACC-257 it was -6.83. The “GI50 AVGDATA” value in the experiment on SNB-19 is recorded as -6.38; in the experiment on MCF7, -7.22; in the experiment with SN12C, -5.71; with NCI-H226 it was -4.99; in the experiment on HOP-62 it was -6.92; in the experiment on SR, -7.35.
Take `CO[C@H]1CC[C@H](n2c([C@@H]3CCCC(=O)N3c3ccc(F)c(F)c3)nc3cc(-c4c(C)noc4C)ccc32)CC1` [inobrodib]: the “GI50 AVGDATA” value with A549/ATCC is given as -4.93; with NCI-H322M, -4.94; with RXF393, -5.32; in the experiment with NCI-H23, -4.88; in the experiment with HOP-92 it was -5.69; in the experiment on UO-31 it was -5.79. Also, the “GI50 AVGDATA” value with NCI/ADR-RES is given as -4.87; with IGROV1 it was -5.34; in the experiment with SK-MEL-2, -4.94; with OVCAR-4 it was -6.11; with UACC-257, -5.59; in the experiment on SNB-19, -5.03. Moreover, the “GI50 AVGDATA” value in the experiment with MCF7 was -6.2; in the experiment with SN12C, -4.99; in the experiment on NCI-H226, -5.37; in the experiment on HOP-62, -5.35; in the experiment with SR it was -6.12.
